In patent EP2848696A1, “Caspase-1 imaging probes” (Sanofi-Aventis Deutschland GmbH, priority 2013, dated 2015):

How the values were obtained:
[1] = target: T1, Caspase-1 (Homo sapiens, UniProt P29466); test: In vitro cleavage of the probe by caspase-1 (fluorescence / FRET change); type: biochemical; settings: for in vitro cleavage: 10 µM probe, 10 nM caspase-1, E/S ratio 1/1000, 25 cycles: 1 min. intervals
T1 sequence (P29466 120-297 limits assumed): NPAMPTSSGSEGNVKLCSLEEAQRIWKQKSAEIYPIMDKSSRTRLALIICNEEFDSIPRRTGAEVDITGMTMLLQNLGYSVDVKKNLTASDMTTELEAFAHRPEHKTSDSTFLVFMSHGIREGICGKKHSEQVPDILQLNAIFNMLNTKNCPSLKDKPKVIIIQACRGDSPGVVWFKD
T1 sequence (P29466 317-404 limits assumed): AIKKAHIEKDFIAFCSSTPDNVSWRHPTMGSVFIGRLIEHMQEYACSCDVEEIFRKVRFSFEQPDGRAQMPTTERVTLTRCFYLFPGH
Protocol: (§1) The E/S ratio was 1/1000, 25 cycles: 1 min. intervals. • Figure 5: Cellular assay with Probe III; PMA=Phorbol-12-myristate-13-acetate; LPS=Lipopolysaccharide; zVAD=carbobenzoxy-valyl-alanyl-asparty-[O-methyl]-fluoromethylketone • Figure 6A-E: Kinetic characterization of probes II, VI, V, IV, and VII. • Figure 7: Cell permeability assay.

[2] = target: T1, Caspase-1; test: Specificity of the probe towards caspase-1; type: biochemical; settings: summary of biological assays
Protocol: as §1, with “The E/S ratio was 1/1000, 25 cycles: 1 min. intervals. • Figures 4A-C: show the in vitro cleavage of 10 µM probe VI in the presence of 10 nM caspase-1. […] The” for “The”

[3] = Cellular toxicity (summary statement); type: cell-based; settings: summary of biological assays
[4] = test system: THP-1 cells
Protocol: THP-1 cells were differentiated with PMA in 4-well glass chambers for 48 hours. 2 hours before the assay zVAD-fmk was added to negative controls. Probes were then added to the cells in 5 µM final concentration and the probe uptake was studied by fluorescence microscopy.

Structure (SMILES) | in vitro cleavage [1] | FRET change ([1]; Figure 1A, cleavage by caspase-1) | change of fluorescence intensity in response to cleavage by caspase-1 ([1]; Figure 1A, dependence on enzyme dose) | FRET change (concentration dependence) ([1]; summary of biological assays) | specificity [2] | toxicity [3] | Cell permeability [4] | Cellular entry (time) [4]
CCN(CC)c1ccc2cc(C(=O)NNC(=O)[C@H](CC(=O)O)NC(=O)[C@@H]3CCCN4C(=O)CC[C@H](NC(=O)c5cc6ccc(OC)cc6oc5=O)C(=O)N34)c(=O)oc2c1 [Probe III] | cleaved very efficiently | about 10 fold | enzyme dose-dependent manner | - Concentration dependent FRET change | - Superiorly specific | - No sign of toxicity | - Cell permeability | –
CCN(CC)c1ccc2cc(C(=O)NCC(=O)NCCCCCCCCNC(=O)[C@H](CC(=O)O)NC(=O)[C@@H]3CCCN4C(=O)CC[C@H](NC(=O)c5cc6ccc(OC)cc6oc5=O)C(=O)N34)c(=O)oc2c1 [Probe VI] | cleaved very efficiently | – | – | – | – | – | – | –
CCCCCCCCN(CCCCCCCC)c1ccc2c(COC(=O)CCCC(=O)NNC(=O)[C@H](CC(=O)O)NC(=O)[C@@H]3CCCN4C(=O)CC[C@H](NC(=O)c5cc6ccc(OC)cc6oc5=O)C(=O)N34)cc(=O)oc2c1 [Probe I] | – | – | – | – | – | – | – | - Cellular entry within 5-7 min.
